Patent US20260176320A1, “MODULATORS OF G-PROTEIN COUPLED RECEPTORS” (priority 2018, published 2026)
Like-named read-outs stand apart in the source and are kept apart here. Numbered stars: 1 amine (or outer) side, 2 acyl side, 3 side chain; on linkers, the order of the positions; unused ones are H or OH. Side chains are listed from the residue outwards. Peptide text beside a SMILES is read from it. * marks the point of attachment. γGlu = O=C(O)[C@H](CCC(=O)[*:2])N[*:1]; X2 = O=C(CSCC(=O)*)NCCN1C(=O)CSC1=O; Palmitoyl = CCCCCCCCCCCCCCCC(=O)*

What was measured:
GIP-R = biological target: T1, GIP-R (Homo sapiens, UniProt P48546); experiment: HitHunter cAMP assay (GIP-R); assay type: cell-based; settings: cAMP; for Emax: read-out: (Emax) GIP-R; for EC50: read-out: EC50 GIP-R/nM
T1 sequence (P48546 22-466): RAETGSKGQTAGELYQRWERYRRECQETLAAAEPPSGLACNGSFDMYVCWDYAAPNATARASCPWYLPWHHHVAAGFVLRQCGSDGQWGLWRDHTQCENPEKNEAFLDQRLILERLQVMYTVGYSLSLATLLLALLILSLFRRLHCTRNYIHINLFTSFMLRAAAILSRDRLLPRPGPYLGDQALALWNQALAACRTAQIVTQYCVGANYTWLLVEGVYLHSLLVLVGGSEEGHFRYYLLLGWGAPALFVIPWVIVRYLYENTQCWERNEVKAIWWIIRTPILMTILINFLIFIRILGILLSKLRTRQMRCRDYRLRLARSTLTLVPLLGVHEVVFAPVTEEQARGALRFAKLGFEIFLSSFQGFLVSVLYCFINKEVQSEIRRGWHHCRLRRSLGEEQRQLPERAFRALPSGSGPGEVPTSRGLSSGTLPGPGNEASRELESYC
Procedure, shortened: (§1)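 Suspension cells expressing each receptor (10,000 per well) in HBSS with 10 mM HEPES, 625 μM IBMX and 0.2% BSA were treated with a 22-point 2-fold agonist series in duplicate for 30 minutes at room temperature. cAMP was detected by antibody immunocompetition with luminescence read after overnight incubation.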

GLP-1R = GLP-1R (Homo sapiens, UniProt P43220); experiment: HitHunter cAMP assay (GLP-1R); assay type: cell-based; settings: cAMP; for Emax: read-out: (Emax) GLP-1R; for EC50: read-out: EC50 GLP-1R/nM
Procedure, shortened: as §1

Sequence of GLP-1R (P43220 24-463): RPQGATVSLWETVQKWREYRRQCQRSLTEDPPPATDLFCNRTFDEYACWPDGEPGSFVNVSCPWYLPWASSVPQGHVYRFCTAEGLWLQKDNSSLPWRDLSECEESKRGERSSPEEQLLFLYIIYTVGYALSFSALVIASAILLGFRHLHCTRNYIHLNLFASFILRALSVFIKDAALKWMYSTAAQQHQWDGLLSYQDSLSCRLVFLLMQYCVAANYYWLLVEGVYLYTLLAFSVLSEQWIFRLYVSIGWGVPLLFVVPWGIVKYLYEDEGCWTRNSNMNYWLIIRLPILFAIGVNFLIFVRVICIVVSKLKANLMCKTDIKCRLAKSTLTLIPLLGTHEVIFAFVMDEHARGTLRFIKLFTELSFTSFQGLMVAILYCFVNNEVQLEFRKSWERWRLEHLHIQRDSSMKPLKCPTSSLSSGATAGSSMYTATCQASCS

SMILES | Emax (GIP-R; Table 3) | EC50 (GIP-R; Table 3) | Emax (GIP-R; Table 3A) | EC50 (GIP-R; Table 3A) | Emax (GLP-1R; Table 3) | EC50 (GLP-1R; Table 3) | Emax (GLP-1R; Table 3A) | EC50 (GLP-1R; Table 3A) | Emax at 1 µM (GIP-R; read-out: (Emax) GIP-R at 1 μM, Table 3, at 1 μM)
CCCCCCCCCCCCCCCC(=O)N[C@@H](CCC(=O)NCCCC[C@H](NC(=O)[C@H](CO)NC(=O)[C@@H]1CCCN1C(=O)[C@@H]1CCCN1C(=O)[C@@H]1CCCN1C(=O)[C@H](C)NC(=O)CNC(=O)[C@H](CO)NC(=O)[C@H](CO)NC(=O)[C@@H]1CCCN1C(=O)CNC(=O)CNC(=O)[C@H](C)NC(=O)[C@H](CC(C)C)NC(=O)[C@H](CC(C)C)NC(=O)[C@H](Cc1c[nH]c2ccccc12)NC(=O)[C@H](CC(N)=O)NC(=O)[C@@H](NC(=O)[C@H](Cc1ccccc1)NC(=O)[C@H](CCC(=O)O)NC(=O)C(C)(C)NC(=O)[C@H](C)NC(=O)[C@H](C)NC(=O)[C@H](CCC(N)=O)NC(=O)[C@H](CCCCN)NC(=O)[C@H](CC(=O)O)NC(=O)[C@H](CC(C)C)NC(=O)[C@H](Cc1ccc(O)cc1)NC(=O)[C@@H](NC(=O)[C@H](CO)NC(=O)[C@H](Cc1ccc(O)cc1)NC(=O)[C@H](CC(=O)O)NC(=O)[C@H](CO)NC(=O)[C@@H](NC(=O)[C@H](Cc1ccccc1)NC(=O)[C@@H](NC(=O)CNC(=O)[C@H](CCC(=O)O)NC(=O)CSCC(=O)NCCN1C(=O)CCN1C)[C@@H](C)O)[C@@H](C)O)[C@@H](C)CC)C(C)C)C(N)=O)C(=O)O [Compound 55] | 47% | 1 to 10 nM | 47% | 1 to 10 nM | 104% | 0.1 to 1 nM | 104% | 0.1 to 1 nM | –
CCCCCCCCCCCCCCCC(=O)NCCCC[C@H](NC(=O)[C@H](CO)NC(=O)[C@@H]1CCCN1C(=O)[C@@H]1CCCN1C(=O)[C@@H]1CCCN1C(=O)[C@H](C)NC(=O)CNC(=O)[C@H](CO)NC(=O)[C@H](CO)NC(=O)[C@@H]1CCCN1C(=O)CNC(=O)CNC(=O)[C@H](C)NC(=O)[C@H](CC(C)C)NC(=O)[C@H](CC(C)C)NC(=O)[C@H](Cc1c[nH]c2ccccc12)NC(=O)[C@H](CC(N)=O)NC(=O)[C@@H](NC(=O)[C@H](Cc1ccccc1)NC(=O)[C@H](CCC(=O)O)NC(=O)C(C)(C)NC(=O)[C@H](C)NC(=O)[C@H](C)NC(=O)[C@H](CCC(N)=O)NC(=O)[C@H](CCCCN)NC(=O)[C@H](CC(=O)O)NC(=O)[C@H](CC(C)C)NC(=O)[C@H](Cc1ccc(O)cc1)NC(=O)[C@@H](NC(=O)[C@H](CO)NC(=O)[C@H](Cc1ccc(O)cc1)NC(=O)[C@H](CC(=O)O)NC(=O)[C@H](CO)NC(=O)[C@@H](NC(=O)[C@H](Cc1ccccc1)NC(=O)[C@@H](NC(=O)CNC(=O)[C@H](CCC(=O)O)NC(=O)CSCC(=O)NCCN1C(=O)CSC1=O)[C@@H](C)O)[C@@H](C)O)[C@@H](C)CC)C(C)C)C(=O)O [Compound 56] | 60% | 1 to 10 nM | 60% | 1 to 10 nM | 110% | 0.1 to 1 nM | 110% | 0.1 to 1 nM | –
CCCCCCCCCCCCCCCC(=O)N[C@@H](CCC(=O)NCCCC[C@H](NC(=O)[C@H](CO)NC(=O)[C@@H]1CCCN1C(=O)[C@@H]1CCCN1C(=O)[C@@H]1CCCN1C(=O)[C@H](C)NC(=O)CNC(=O)[C@H](CO)NC(=O)[C@H](CO)NC(=O)[C@@H]1CCCN1C(=O)CNC(=O)CNC(=O)[C@H](C)NC(=O)[C@H](CC(C)C)NC(=O)[C@H](CC(C)C)NC(=O)[C@H](Cc1c[nH]c2ccccc12)NC(=O)[C@H](CC(N)=O)NC(=O)[C@@H](NC(=O)[C@H](Cc1ccccc1)NC(=O)[C@H](CCC(=O)O)NC(=O)C(C)(C)NC(=O)[C@H](C)NC(=O)[C@H](C)NC(=O)[C@H](CCC(N)=O)NC(=O)[C@H](CCCCN)NC(=O)[C@H](CC(=O)O)NC(=O)[C@H](CC(C)C)NC(=O)[C@H](Cc1ccc(O)cc1)NC(=O)[C@@H](NC(=O)[C@H](CO)NC(=O)[C@H](Cc1ccc(O)cc1)NC(=O)[C@H](CC(=O)O)NC(=O)[C@H](CO)NC(=O)[C@@H](NC(=O)[C@H](Cc1ccccc1)NC(=O)[C@@H](NC(=O)CNC(=O)[C@H](CCC(=O)O)NC(=O)CSCC(=O)NCCC1CCCC1)[C@@H](C)O)[C@@H](C)O)[C@@H](C)CC)C(C)C)C(N)=O)C(=O)O [Compound 57] | – | – | – | – | 109% | 0.1 to 1 nM | 109% | 0.1 to 1 nM | 7%
CCCCCCCCCCCCCCCC(=O)N[C@@H](CCC(=O)NCCCC[C@H](NC(=O)[C@H](CO)NC(=O)[C@@H]1CCCN1C(=O)[C@@H]1CCCN1C(=O)[C@@H]1CCCN1C(=O)[C@H](C)NC(=O)CNC(=O)[C@H](CO)NC(=O)[C@H](CO)NC(=O)[C@@H]1CCCN1C(=O)CNC(=O)CNC(=O)[C@H](C)NC(=O)[C@H](CC(C)C)NC(=O)[C@H](CC(C)C)NC(=O)[C@H](Cc1c[nH]c2ccccc12)NC(=O)[C@H](CC(N)=O)NC(=O)[C@@H](NC(=O)[C@H](Cc1ccccc1)NC(=O)[C@H](CCC(=O)O)NC(=O)C(C)(C)NC(=O)[C@H](C)NC(=O)[C@H](C)NC(=O)[C@H](CCC(N)=O)NC(=O)[C@H](CCCCN)NC(=O)[C@H](CC(=O)O)NC(=O)[C@H](CC(C)C)NC(=O)[C@H](Cc1ccc(O)cc1)NC(=O)[C@@H](NC(=O)[C@H](CO)NC(=O)[C@H](Cc1ccc(O)cc1)NC(=O)[C@H](CC(=O)O)NC(=O)[C@H](CO)NC(=O)[C@@H](NC(=O)[C@H](Cc1ccccc1)NC(=O)[C@@H](NC(=O)CNC(=O)[C@H](CCC(=O)O)NC(=O)CSCC(=O)NCCN1NCCC1=O)[C@@H](C)O)[C@@H](C)O)[C@@H](C)CC)C(C)C)C(N)=O)C(=O)O [Compound 58] | 26% | 1 to 10 nM | 26% | 10 to 100 nM | 108% | 0.1 to 1 nM | 108% | 0.1 to 1 nM | –
CCCCCCCCCCCCCCCC(=O)N[C@@H](CCC(=O)NCCCC[C@H](NC(=O)[C@H](CO)NC(=O)[C@@H]1CCCN1C(=O)[C@@H]1CCCN1C(=O)[C@@H]1CCCN1C(=O)[C@H](C)NC(=O)CNC(=O)[C@H](CO)NC(=O)[C@H](CO)NC(=O)[C@@H]1CCCN1C(=O)CNC(=O)CNC(=O)[C@H](C)NC(=O)[C@H](CC(C)C)NC(=O)[C@H](CC(C)C)NC(=O)[C@H](Cc1c[nH]c2ccccc12)NC(=O)[C@H](CC(N)=O)NC(=O)[C@@H](NC(=O)[C@H](Cc1ccccc1)NC(=O)[C@H](CCC(=O)O)NC(=O)C(C)(C)NC(=O)[C@H](C)NC(=O)[C@H](C)NC(=O)[C@H](CCC(N)=O)NC(=O)[C@H](CCCCN)NC(=O)[C@H](CC(=O)O)NC(=O)[C@](C)(CC(C)C)NC(=O)[C@H](Cc1ccc(O)cc1)NC(=O)[C@@H](NC(=O)[C@H](CO)NC(=O)[C@H](Cc1ccc(O)cc1)NC(=O)[C@H](CC(=O)O)NC(=O)[C@H](CO)NC(=O)[C@@H](NC(=O)[C@H](Cc1ccccc1)NC(=O)[C@@H](NC(=O)CNC(=O)[C@H](CCC(=O)O)NC(=O)CSCC(=O)NCCN1C(=O)CSC1=O)[C@@H](C)O)[C@@H](C)O)[C@@H](C)CC)C(C)C)C(N)=O)C(=O)O [Compound 70] | 86% | 1 to 10 nM | 86% | 1 to 10 nM | 102% | 0.1 to 1 nM | 102% | 0.1 to 1 nM | –
CCCCCCCCCCCCCCCC(=O)N[C@@H](CCC(=O)NCCCC[C@H](NC(=O)[C@H](CO)NC(=O)[C@@H]1CCCN1C(=O)[C@@H]1CCCN1C(=O)[C@@H]1CCCN1C(=O)[C@H](C)NC(=O)CNC(=O)[C@H](CO)NC(=O)[C@H](CO)NC(=O)[C@@H]1CCCN1C(=O)CNC(=O)[C@H](CCCNC(=N)N)NC(=O)[C@H](CCC(N)=O)NC(=O)[C@H](C)NC(=O)[C@H](CC(C)C)NC(=O)[C@H](CC(C)C)NC(=O)[C@H](Cc1c[nH]c2ccccc12)NC(=O)[C@H](CC(N)=O)NC(=O)[C@@H](NC(=O)[C@H](Cc1ccccc1)NC(=O)[C@H](CC(=O)O)NC(=O)[C@H](CCC(N)=O)NC(=O)[C@H](CCC(N)=O)NC(=O)[C@H](CCCNC(=N)N)NC(=O)[C@@H](NC(=O)[C@H](CCCCN)NC(=O)[C@H](CC(=O)O)NC(=O)[C@H](CCSC)NC(=O)[C@H](C)NC(=O)[C@@H](NC(=O)[C@H](CO)NC(=O)[C@H](Cc1ccc(O)cc1)NC(=O)[C@H](CC(=O)O)NC(=O)[C@H](CO)NC(=O)[C@@H](NC(=O)[C@H](Cc1ccccc1)NC(=O)[C@@H](NC(=O)CNC(=O)[C@H](CCC(=O)O)NC(=O)CSCC(=O)NCCN1C(=O)CSC1=O)[C@@H](C)O)[C@@H](C)CC)[C@@H](C)CC)[C@@H](C)CC)C(C)C)C(N)=O)C(=O)O [Compound 76] (X2-EGTFISDYSIAMDKIRQQDFVNWLLAQRGPSSGAPPPSK([γGlu-Palmitoyl])-NH2) | 89% | 0.1 to 1 nM | 89% | 0.1 to 1 nM | 95% | 1 to 10 nM | 95% | 1 to 10 nM | –
